For data set [1], the target named is T1, α2δ-subunit of a calcium channel (Sus scrofa, UniProt A0A287BIN3).
T1 construct: the α2δ-subunit derived from porcine brain tissue was used; from tissue; host or cells: porcine brain tissue
The data set can be described thus: radioligand binding assay using [3H]-gabapentin. The conditions noted are these: α2δ-subunit derived from porcine brain tissue. The text has this: The ability of compounds of the present invention to bind to the α2δ-subunit of a calcium channel can be determined using the following binding assay.
The radioligand binding assay using [^3H]-gabapentin and the α2δ-subunit derived from porcine brain tissue was used (See, Gee, Nicolas S et at “The novel anticonvulsant drug, gabapentin (Neurontin), binds to the α2δ subunit of a calcium channel”. J. Biol. Chem. (1996), 271(10), 5768-76). Compounds of the invention bind with nanomolar to micromolar affinity for the α2δ protein.

Structures are written as SMILES. Where a name gives a salt, the structure may show the parent alone.

We go through eight compounds from US7517909B2, “Amino acids with affinity for the α2δ-protein” (Pfizer Inc, priority 2002, dated 2009).

T1 sequence (A0A287BIN3 25-1109): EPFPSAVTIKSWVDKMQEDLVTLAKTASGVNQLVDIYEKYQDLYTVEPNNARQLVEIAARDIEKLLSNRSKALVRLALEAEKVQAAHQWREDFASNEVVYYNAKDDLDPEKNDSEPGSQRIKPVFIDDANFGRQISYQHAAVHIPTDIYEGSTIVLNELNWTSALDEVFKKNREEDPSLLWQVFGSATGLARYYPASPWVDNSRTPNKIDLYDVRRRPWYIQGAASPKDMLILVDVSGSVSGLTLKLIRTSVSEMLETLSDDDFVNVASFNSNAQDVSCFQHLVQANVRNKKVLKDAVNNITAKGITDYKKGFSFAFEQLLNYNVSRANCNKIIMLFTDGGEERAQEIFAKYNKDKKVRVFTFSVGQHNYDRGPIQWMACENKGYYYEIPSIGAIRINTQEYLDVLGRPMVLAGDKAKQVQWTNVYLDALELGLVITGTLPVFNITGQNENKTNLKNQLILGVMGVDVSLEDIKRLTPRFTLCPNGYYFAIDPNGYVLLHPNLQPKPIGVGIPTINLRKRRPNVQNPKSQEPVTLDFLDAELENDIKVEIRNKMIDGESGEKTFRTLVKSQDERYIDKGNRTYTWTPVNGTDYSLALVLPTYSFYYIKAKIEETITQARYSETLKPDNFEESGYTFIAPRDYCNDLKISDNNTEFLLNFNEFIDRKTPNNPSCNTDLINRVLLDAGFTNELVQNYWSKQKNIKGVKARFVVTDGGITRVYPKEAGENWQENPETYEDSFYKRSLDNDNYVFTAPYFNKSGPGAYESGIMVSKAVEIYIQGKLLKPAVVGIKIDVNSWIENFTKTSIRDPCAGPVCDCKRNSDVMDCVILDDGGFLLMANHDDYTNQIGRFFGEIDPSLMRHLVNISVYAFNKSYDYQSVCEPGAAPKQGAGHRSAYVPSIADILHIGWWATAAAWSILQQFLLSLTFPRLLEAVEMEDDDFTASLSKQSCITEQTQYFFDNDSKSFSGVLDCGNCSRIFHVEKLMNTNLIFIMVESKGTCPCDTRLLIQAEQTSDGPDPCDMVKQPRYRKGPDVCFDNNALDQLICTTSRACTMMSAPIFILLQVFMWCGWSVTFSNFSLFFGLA

In the case of `CCC[C@@H](C)C[C@H](N)CC(=O)O.Cl`, the melting point (as a rule, the temperature of the solid-liquid transition) was in the range of 142.5 to 142.7 °C.

Consider `CCCC[C@@H](C)C[C@H](N)CC(=O)O` (as salt: hydrochloride), for which the melting point lay within 142.5 to 143.3 °C. On the same count and under the same terms, with `CCCC(C)(C)C[C@H](N)CC(=O)O` (as salt: hydrochloride) the figure was 194.2 to 195.2 °C.

`CCC[C@@H](C)C[C@H](CN)C(=O)O` (as salt: hydrochloride) [(2R,4R)-2-Aminomethyl-4-methyl-heptanoic acid]: the melting point lay in the range of 226.3 to 228 °C. Turning to `CCCC(C)(C)CC(CN)C(=O)O.Cl` (stereo not drawn) [2-Aminomethyl-4,4-dimethyl-heptanoic acid hydrochloride], the melting point was 229.5 to 231 °C. Further, the “affinity to the α2δ protein” value in data set [1] was determined as 83 nM.

In the case of `CCC[C@@H](C)C[C@H](CN)C(=O)O` [(2R,4R)-2-Aminomethyl-4-methyl-heptanoic acid], in data set [1], the “affinity to the α2δ protein” value is 29 nM. In the case of `CCC[C@H](C)C[C@H](N)CC(=O)O` [(3S,5S)-3-amino-5-methyl-octanoic acid], the “affinity to the α2δ protein” value in data set [1] was found to be 1000 nM. The same measure, in the same setting: with `CC(C)CCCC(C)C[C@@H](N)CC(=O)O` (stereo partly drawn) [R-3-amino-5,9-dimethyl-decanoic acid] the figure was 527 nM.
